We go through 9 compounds from PubChem BioAssay (NCI).

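All cell lines were grown in 96-well plates and treated with compound for 48 hours. At the GI50, growth is halved. The concentration for full growth arrest is given as TGI.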 Some results are limits rather than exact numbers.

The first experiment concerns U251 CNS. As to the kind of experiment: NCI anticancer screen, dose series, 48 h.
`CCc1cccc(CC)c1NC(=O)/C(Cl)=C(/Cl)C(=O)O`: the TGI is over 69.8 µM.
On to `Cc1cc(Br)c(NC(=O)c2c(-c3c(Cl)cccc3Cl)noc2C)c(Br)c1`, for which the GI50 is over 100 µM and the TGI was over 100 µM.
Take `OCCCCC#Cc1ccccc1C#Cc1cccc(C(F)(F)F)c1`: the GI50 is 17.2 µM and the TGI was 31.6 µM.
The compound `CC(C)Cc1ccc(C(C)/C=C2\CCC(CN(C)C)C2=O)cc1` (stereo not given) registered a TGI of 30.4 µM.
The same measure, in the same setting: the figure for `COc1cc(/C=C/c2csnn2)cc(OC)c1OC` is over 100 µM.
As for `CC(C)[C@@H]1CC[C@]2(CO2)[C@@H]2C(=O)OCC(C(=O)O)=C[C@H]21`, the GI50 was 0.343 µM and the TGI was over 100 µM.
For the compound `Cn1c(=O)c2nc3sc4c(n3c2n(C)c1=O)C(=O)c1ccccc1C4=O`, the TGI is over 57.5 µM.
Consider `COc1ccc(/C=C2\CCC/C(=C\c3ccc(OC)c(OC)c3)C2=O)cc1OC`, for which the GI50 was 1.4 µM and the TGI is over 32.5 µM.
`N#CC1CC(c2ccccc2)Nc2cc(Cl)ccc2N1` (stereo not given): the TGI was over 100 µM.

A further experiment relates to A549 NSCLC. Briefly: NCI anticancer screen, dose series, 48 h.
`CCc1cccc(CC)c1NC(=O)/C(Cl)=C(/Cl)C(=O)O` returned a TGI of over 89.6 µM.
`Cc1cc(Br)c(NC(=O)c2c(-c3c(Cl)cccc3Cl)noc2C)c(Br)c1`: the GI50 is over 100 µM and the TGI is over 100 µM.
`OCCCCC#Cc1ccccc1C#Cc1cccc(C(F)(F)F)c1`: the GI50 is 15.1 µM and the TGI was found to be 28.6 µM.
For `CC(C)Cc1ccc(C(C)/C=C2\CCC(CN(C)C)C2=O)cc1` (stereo not given), the TGI was 69.5 µM.
Same read-out and setting: the figure for `COc1cc(/C=C/c2csnn2)cc(OC)c1OC` is over 100 µM.
Take `CC(C)[C@@H]1CC[C@]2(CO2)[C@@H]2C(=O)OCC(C(=O)O)=C[C@H]21`: the GI50 is 1.57 µM and the TGI was over 100 µM.
As for `Cn1c(=O)c2nc3sc4c(n3c2n(C)c1=O)C(=O)c1ccccc1C4=O`, the TGI was over 100 µM.
With `COc1ccc(/C=C2\CCC/C(=C\c3ccc(OC)c(OC)c3)C2=O)cc1OC`, the GI50 is 1.79 µM and the TGI was over 32.5 µM.
Compound `N#CC1CC(c2ccccc2)Nc2cc(Cl)ccc2N1` (stereo not given) registered a TGI of over 100 µM.

The subject of another experiment is SF-539 CNS. As to the kind of experiment: NCI anticancer screen, dose series, 48 h.
In turn, `CCc1cccc(CC)c1NC(=O)/C(Cl)=C(/Cl)C(=O)O` displayed a TGI of 49.2 µM.
Take `Cc1cc(Br)c(NC(=O)c2c(-c3c(Cl)cccc3Cl)noc2C)c(Br)c1`: the GI50 was over 100 µM and the TGI is over 100 µM.
For the compound `OCCCCC#Cc1ccccc1C#Cc1cccc(C(F)(F)F)c1`, the GI50 was 20.1 µM and the TGI amounted to 38 µM.
Compound `CC(C)Cc1ccc(C(C)/C=C2\CCC(CN(C)C)C2=O)cc1` (stereo not given) gave a TGI of 30.4 µM.
With `COc1cc(/C=C/c2csnn2)cc(OC)c1OC`, the TGI is over 100 µM.
Consider `CC(C)[C@@H]1CC[C@]2(CO2)[C@@H]2C(=O)OCC(C(=O)O)=C[C@H]21`, for which the GI50 was 0.353 µM and the TGI is over 34.6 µM.
With `Cn1c(=O)c2nc3sc4c(n3c2n(C)c1=O)C(=O)c1ccccc1C4=O`, the TGI is over 74.2 µM.
Turning to `COc1ccc(/C=C2\CCC/C(=C\c3ccc(OC)c(OC)c3)C2=O)cc1OC`, the GI50 is 8.55 µM and the TGI was over 32.5 µM.
On to `N#CC1CC(c2ccccc2)Nc2cc(Cl)ccc2N1` (stereo not given), for which the TGI was over 100 µM.

The test system of a further experiment is HL-60(TB) leukemia. As to the kind of experiment: NCI anticancer screen, dose series, 48 h.
`CCc1cccc(CC)c1NC(=O)/C(Cl)=C(/Cl)C(=O)O` came in with a TGI of over 67.3 µM.
For `Cc1cc(Br)c(NC(=O)c2c(-c3c(Cl)cccc3Cl)noc2C)c(Br)c1`, the GI50 was over 100 µM and the TGI is over 100 µM.
On to `OCCCCC#Cc1ccccc1C#Cc1cccc(C(F)(F)F)c1`, for which the GI50 is 24.6 µM and the TGI worked out at 59.5 µM.
Turning to `CC(C)Cc1ccc(C(C)/C=C2\CCC(CN(C)C)C2=O)cc1` (stereo not given), the TGI was 26.7 µM.
`COc1cc(/C=C/c2csnn2)cc(OC)c1OC` showed a TGI of over 100 µM.
On to `CC(C)[C@@H]1CC[C@]2(CO2)[C@@H]2C(=O)OCC(C(=O)O)=C[C@H]21`, for which the GI50 is 0.328 µM and the TGI is 1.7 µM.
In turn, `Cn1c(=O)c2nc3sc4c(n3c2n(C)c1=O)C(=O)c1ccccc1C4=O` registered a TGI of 45.3 µM.
With `COc1ccc(/C=C2\CCC/C(=C\c3ccc(OC)c(OC)c3)C2=O)cc1OC`, the GI50 was 2.25 µM and the TGI was over 32.5 µM.
Compound `N#CC1CC(c2ccccc2)Nc2cc(Cl)ccc2N1` (stereo not given) registered a TGI of over 100 µM.

The subject of the next experiment is OVCAR-4 ovarian. As to the kind of experiment: NCI anticancer screen, dose series, 48 h.
Compound `CCc1cccc(CC)c1NC(=O)/C(Cl)=C(/Cl)C(=O)O` yielded a TGI of 31.1 µM.
As to `Cc1cc(Br)c(NC(=O)c2c(-c3c(Cl)cccc3Cl)noc2C)c(Br)c1`, the GI50 is 73.4 µM and the TGI was over 100 µM.
On the same counts, the results for `OCCCCC#Cc1ccccc1C#Cc1cccc(C(F)(F)F)c1` are 14 µM and 28.1 µM.
Take `CC(C)Cc1ccc(C(C)/C=C2\CCC(CN(C)C)C2=O)cc1` (stereo not given): the TGI came to 35.2 µM.
The same measure, in the same setting: the figure for `COc1cc(/C=C/c2csnn2)cc(OC)c1OC` is over 100 µM.
Turning to `CC(C)[C@@H]1CC[C@]2(CO2)[C@@H]2C(=O)OCC(C(=O)O)=C[C@H]21`, the GI50 was 0.44 µM and the TGI is over 100 µM.
With `Cn1c(=O)c2nc3sc4c(n3c2n(C)c1=O)C(=O)c1ccccc1C4=O`, the TGI is over 81.4 µM.
Regarding `COc1ccc(/C=C2\CCC/C(=C\c3ccc(OC)c(OC)c3)C2=O)cc1OC`, the GI50 is 3.28 µM and the TGI is over 32.5 µM.
`N#CC1CC(c2ccccc2)Nc2cc(Cl)ccc2N1` (stereo not given): the TGI is over 100 µM.
